How the values were obtained:
Format in all cases: cell-based
[1] = biological target: T1, alpha2c receptor (Homo sapiens, UniProt P18825); test: RSAT assay (Receptor Selection and Amplification Technology), alpha2C; conditions: for EC50: NIH-3T3 cells cotransfected with receptor and Gq/i5, read-out: Alpha 2C potency EC50; for Alpha 2C intrinsic activity (efficacy): value in parentheses, ratio of maximal effect to that of standard full agonist brimonidine (UK14304)
T1 construct: expressed in transfected cells; host or cells: NIH-3T3
T1 sequence (P18825 1-462): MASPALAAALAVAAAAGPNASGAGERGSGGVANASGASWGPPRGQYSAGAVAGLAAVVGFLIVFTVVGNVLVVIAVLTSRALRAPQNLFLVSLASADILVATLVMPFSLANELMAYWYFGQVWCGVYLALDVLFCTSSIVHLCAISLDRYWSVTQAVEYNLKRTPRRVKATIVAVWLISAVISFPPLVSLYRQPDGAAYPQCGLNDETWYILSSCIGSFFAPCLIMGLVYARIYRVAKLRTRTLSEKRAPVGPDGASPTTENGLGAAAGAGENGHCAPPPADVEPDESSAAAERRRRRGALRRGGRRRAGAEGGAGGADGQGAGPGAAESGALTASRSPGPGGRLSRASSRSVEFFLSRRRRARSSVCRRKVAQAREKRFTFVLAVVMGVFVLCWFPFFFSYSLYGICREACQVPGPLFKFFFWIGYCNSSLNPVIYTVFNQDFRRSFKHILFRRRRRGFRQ
Method: (§1) Receptor Selection and Amplification Technology (RSAT) Assay
(§2) The RSAT assay measures a receptor-mediated loss of contact inhibition that results in selective proliferation of receptor-containing cells in a mixed population of confluent cells. The increase in cell number is assessed with an appropriate transfected marker gene such as β-galactosidase, the activity of which can be easily measured in a 96-well format. Receptors that activate the G protein, Gq, elicit this response. Alpha2 receptors, which normally couple to Gi, activate the RSAT response when coexpressed with a hybrid Gq protein that has a Gi receptor recognition domain, called Gq/i5.
(§3) NIH-3T3 cells are plated at a density of 2×10^6 cells in 15 cm dishes and maintained in Dulbecco's modified Eagle's medium supplemented with 10% calf serum. One day later, cells are cotransfected by calcium phosphate precipitation with mammalian expression plasmids encoding p-SV-β-galactosidase (5-10 μg), receptor (1-2 μg) and G protein (1-2 μg). 40 μg salmon sperm DNA may also be included in the transfection mixture. Fresh media is added on the following day and 1-2 days later, cells are harvested and frozen in 50 assay aliquots. Cells are thawed and 100 μl added to 100 μl aliquots of various concentrations of drugs in triplicate in 96-well dishes. Incubations continue 72-96 hr at 37° C. After washing with phosphate-buffered saline, β-galactosidase enzyme activity is determined by adding 200 μl of the chromogenic substrate (consisting of 3.5 mM o-nitrophenyl-β-D-galactopyranoside and 0.5% nonidet P-40 in phosphate buffered saline), incubating overnight at 30° C. and measuring optical density at 420 nm. The absorbance is a measure of enzyme activity, which depends on cell number and reflects a receptor-mediated cell proliferation. The efficacy or intrinsic activity is calculated as a ratio of the maximal effect of the drug to the maximal effect of a standard full agonist for each receptor subtype. Brimonidine, also called UK14304, the chemical structure of which is shown below, is used as the standard agonist for the alpha2A, alpha2B and alpha2c receptors. The EC50 is the concentration at which the drug effect is half of its maximal effect.
(§4) EC50 values are nanomolar. ND stands for “not determinable” at concentrations less than 10 micromolar. IA stands for “intrinsic activity.”

[2] = biological target: T2, alpha2B receptor (Homo sapiens, UniProt P18089); test: RSAT assay (Receptor Selection and Amplification Technology), alpha2B; conditions: for EC50: NIH-3T3 cells cotransfected with receptor and Gq/i5, read-out: Alpha 2B potency EC50; for Alpha 2B intrinsic activity (efficacy): value in parentheses, ratio of maximal effect to that of standard full agonist brimonidine (UK14304)
T2 construct: expressed in transfected cells; host or cells: NIH-3T3
T2 sequence (P18089 1-450): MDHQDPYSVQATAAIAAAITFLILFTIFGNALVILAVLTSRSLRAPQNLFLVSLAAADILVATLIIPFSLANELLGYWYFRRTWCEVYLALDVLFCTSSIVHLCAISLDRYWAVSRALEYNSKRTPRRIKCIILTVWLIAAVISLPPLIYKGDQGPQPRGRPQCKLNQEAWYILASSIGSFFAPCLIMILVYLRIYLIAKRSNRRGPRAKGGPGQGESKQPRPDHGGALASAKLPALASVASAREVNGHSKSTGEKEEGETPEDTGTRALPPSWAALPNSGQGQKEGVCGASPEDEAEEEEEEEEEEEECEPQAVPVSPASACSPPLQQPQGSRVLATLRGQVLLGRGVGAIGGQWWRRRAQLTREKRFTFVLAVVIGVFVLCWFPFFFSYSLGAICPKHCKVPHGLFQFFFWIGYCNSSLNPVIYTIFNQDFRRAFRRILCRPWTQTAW
Method: as §1, §2, §3, §4

[3] = biological target: T3, alpha2A receptor (Homo sapiens, UniProt P08913); test: RSAT assay (Receptor Selection and Amplification Technology), alpha2A; conditions: value in parentheses; ratio of maximal effect to that of standard full agonist brimonidine (UK14304)
T3 construct: expressed in transfected cells; host or cells: NIH-3T3
T3 sequence (P08913 1-465): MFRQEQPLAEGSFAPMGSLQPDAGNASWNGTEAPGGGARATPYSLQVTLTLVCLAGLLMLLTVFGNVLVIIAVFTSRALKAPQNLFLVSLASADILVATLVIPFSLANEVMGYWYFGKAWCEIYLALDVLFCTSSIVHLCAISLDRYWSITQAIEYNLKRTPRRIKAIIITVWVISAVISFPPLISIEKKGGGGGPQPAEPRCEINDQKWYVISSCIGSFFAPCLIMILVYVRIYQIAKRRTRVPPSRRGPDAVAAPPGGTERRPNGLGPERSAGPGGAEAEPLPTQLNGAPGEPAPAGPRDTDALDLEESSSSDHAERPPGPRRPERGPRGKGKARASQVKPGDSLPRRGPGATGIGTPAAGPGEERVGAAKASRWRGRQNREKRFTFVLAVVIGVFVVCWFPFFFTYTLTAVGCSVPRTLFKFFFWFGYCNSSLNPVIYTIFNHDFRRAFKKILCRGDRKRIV
Method: as §1, §2
NIH-3T3 cells are plated at a density of 2×10^6 cells in 15 cm dishes and maintained in Dulbecco's modified Eagle's medium supplemented with 10% calf serum. […] After washing with phosphate-buffered saline, β-galactosidase enzyme activity is determined by adding 200 μl of the chromogenic substrate (consisting of 3.5 mM o-nitrophenyl-β-D-galactopyranoside and 0.5% nonidet P-40 in phosphate buffered saline), incubating overnight at 30° C. and measuring optical density at 420 nm. The absorbance is a measure of enzyme activity, which depends on cell number and reflects a receptor-mediated cell proliferation. […]

Structure (SMILES) | EC50 [1] [nM] | Alpha 2C intrinsic activity (efficacy) [1] | EC50 [2] [nM] | Alpha 2B intrinsic activity (efficacy) [2] | Alpha 2A intrinsic activity (efficacy) [3]
c1ccc(C(c2cnc[nH]2)c2cccc3ncccc23)cc1 (stereo not shown) [5-((1H-imidazol-5-yl)(phenyl)methyl)quinoline] | 50 | 0.33 | 319 | 0.89 | 0.12
c1ccc(C(c2cnc[nH]2)c2cccc3cccnc23)cc1 (stereo not shown) [8-((1H-imidazol-5-yl)(phenyl)methyl)quinoline] | 832 | 0.61 | 23 | 1.16 | 0.09

From US8124774B2, “Therapeutic ((phenyl)imidazolyl)methylquinolinyl compounds” (Allergan, Inc., priority 2007, dated 2012)
